Measurements reported in patent publication US20170314056A1, “METHOD OF USING NEAR INFRARED FLUORESCENT DYES FOR IMAGING AND TARGETING CANCERS” (priority 2010, published 2017).
“Also recorded” adds a separate entry of the source.

How the values were obtained:
[1] = system: mouse pancreatic cancer cell lines (PDAC2.3, PDAC3.3, BTC3 and BTC4); assay: Uptake of NIR dyes by mouse pancreatic cancer cell lines; type: cell-based; conditions: PDAC2.3, PDAC3.3, BTC3, BTC4; 20 μM dye
[2] = system: P69 cells; assay: Live-cell kinetics of dye uptake in normal prostate epithelial cells; type: cell-based, human
Procedure: Cells were plated on live-cell imaging chambers (World Precision Instrument, Sarasota, Fla.) overnight. Cells were exposed to cyanine dyes at different concentrations and dye uptake was evaluated by a Perkin-Elmer Ultraview ERS spinning disc confocal microscope. This system was mounted on a Zeiss Axiovert 200m inverted microscope equipped with a 37° C. stage warmer, incubator, and constant CO2 perfusion. A 63× or 100× Zeiss oil objective (numerical aperture, 1.4) was used for live cell images and a Z-stack was created using the attached piezoelectric z-stepper motor. The 633 nm laser line of an argon ion laser (set at 60% power) was used to excite the cyanine dyes. […] For comparative studies, the exposure time and laser intensity were kept identical for accurate intensity measurements. Pixel intensity was quantified using Metamorph 6.1 (Universal Imaging, Downingtown, Pa.) and the mean pixel intensity was generated as grey level using the Region Statistics feature on the software (23). To determine the dye uptake by the mitochondria, the mitochondrial tracking dye Mito Tracker Orange CMTMROS (Molecular Probes, Carlsbad, Calif.) was used. To determine the dye localization in lysosomes, a lysosome tracking dye, Lyso Tracker Green DND-26 (Molecular Probes, Carlsbad, Calif.), was selected. Imaging of mitochondrial and/or lysosome localization of the cyanine dye was conducted under confocal microscopy (24).
To determine if the cyanine dye uptake and accumulation in cancer cells was dependent upon OATPs, cells were preincubated with 250 μM bromosulfophthalein (BSP), a competitive inhibitor of organic anion transporting peptides (OATPs) (25), for 5 minutes prior to incubating the cells with cyanine dyes. The uptake and accumulation of cyanine dyes in the presence and absence of BSP were conducted in the stage warmer incubator for a period of 35 minutes. The levels of cyanine dye taken up and accumulated in normal prostate (P69) and prostate cancer (ARCaPM) cells were determined and compared on a real-time basis.

[3] = system: renal cancer cells; assay: Subcellular co-localization in renal cancer cells; type: cell-based, human; conditions: Mito tracker and Lyso tracker overlay
Procedure: To determine the dye uptake by the mitochondria, the mitochondrial tracking dye, Mito Tracker Orange CMTMROS (Molecular Probes, Carlsbad, Calif.), was used. To determine the dye localization in lysosomes, a lysosome tracking dye, Lyso Tracker Green DND-26 (Molecular Probes, Carlsbad, Calif.), was selected. Images of mitochondrial and/or lysosome localization of the cyanine dye were merged and evidence of co-localization of the cyanine dye and tracking dyes were assessed by confocal imaging using a previously established protocol.^69

[4] = system: TRAMP mouse prostate tumors; assay: Detection of spontaneous prostate tumors in TRAMP transgenic mice; type: in vivo
Procedure: (§1) The uptake of cyanine dyes by the TRAMP mouse prostate model and the Apc^Min/+ mouse-adenoma model (obtained from The Jackson Laboratory, Bar Harbor, Me.) was assessed by a similar protocol as described above. We also utilized the Olympus OV100 imaging system to detect adenoma in the Apc^Min/+ mouse model. In brief, mice were injected intraperitoneally with IR-783 dye at a dose of 10 nmol/20 g body weight and animals were subjected to total body cyanine dye imaging as described above. Animals were sacrificed at 48 hrs after dye administration and tumors were dissected and subjected to NIR imaging. The presence of tumor cells in tissue specimens was confirmed by histopathologic analysis.

[5] = system: Apc^Min/+ mouse adenoma; assay: Detection of intestinal neoplasia in Apc^Min/+ mice; type: in vivo; conditions: IR-783 i.p. 10 nmol/20 g
Procedure: as §1

[6] = system: human bladder tumors; assay: Uptake in freshly harvested human bladder tumor specimens; type: cell-based
Description: The inventors determined the ability of IR-783 as an imaging agent for freshly harvested human renal and bladder cancer specimens. […] Fresh tumor xenografts grown in mice (FIG. 35) are able to uptake the dye. […] The nature of this uptake at this time is not clear.

[7] = system: ARCaPM cells; assay: Detection of prostate cancer cells in human blood; type: cell-based
Procedure: An experimental model of evaluating human prostate cancer cells in blood was developed. In brief, heparinized whole blood from human volunteers was collected according to an Emory University approved IRB protocol. A known number of human prostate cancer cells (10-1,000) were added to 1 ml of whole blood, mixed gently with 20 μM IR-783 and incubated for 30 minutes at 37° C. The mononuclear cells and cancer cells were recovered by gradient centrifugation using Histopaque-1077 (Sigma, St. Louis, Mo.). The isolated live cells were observed under a confocal fluorescence microscope.

[8] = system: human renal cancer cells (SN12C); assay: Detection of renal cancer cells in blood by NIR imaging and flow cytometry; type: cell-based; conditions: SN12C cells spiked into whole blood; 20 μM IR-783
Procedure: Citrated whole mouse blood samples were collected from same inbred athymic nude mice. A known number of human renal cancer cells (SN12C) were added into 3 ml whole mouse blood, and mixed gently with 20 μM IR-783 and incubated for 30 minutes at 37° C. The mononuclear cells and cancer cells were recovered by gradient centrifugation using Histopaque-1077 (Sigma, St. Louis, Mo.) and then diluted with 0.5 ml of 1% paraformaldehyde to inhibit further activation. A sample incubated with PBS served as negative isotype control. The isolated live cells were observed under a Leica TCS SP confocal microscope (Leica Microsystems, Heidelberg, Germany) and samples were excited with 670 nm. All samples were analyzed within 1 hrs of collection in a Becton Dickinson LSRII flow cytometer (Becton Dickinson Biosciences, San Jose, Calif.) with a red laser diode (640 nm) for excitation and cy7 detector for detection and with LYSIS II software.

## 2-[2-[2-Chloro-3-[2-[1,3-dihydro-3,3-dimethyl-1-(4-sulfobutyl)-2H-indol-2-ylidene]-ethylidene]-1-cyclohexen-1-yl]-ethenyl]-3,3-dimethyl-1-(4-sulfobutyl)-3H-indolium [IR-783]
[1]
  uptake of dye by mouse pancreatic cancer cell lines: taken up by other malignant cells from both human and mouse; also recorded: significant uptake
[2]; confocal imaging, 630×
  uptake of dye in P69 cells: not in normal human prostate epithelial P69 cells
[2]; control P69 cells
  plateau of uptake and retention compared with ARCaP cells: much lower plateau
  start of uptake and retention: 12 min
[3]
  subcellular localization of the dye: co-localization with mitochondrial and lysosome organelles
[4]; TRAMP mice, IR-783 i.p. 10 nmol/20 g
  detection of / dye uptake by TRAMP prostate tumors: accumulate in prostate tumors and their metastases; also recorded: could detect tumor; also recorded: active uptake; also recorded: only tumor-positive signal
[4]; TRAMP tumor, formalin solution for 3 weeks
  NIR fluorescence of tumor specimen after formalin fixation: retain heptamethine cyanine NIR fluorescence; also recorded: strong NIR signal
[5]
  detection of tumor (adenoma): could detect tumor
[6]; freshly harvested bladder specimens
  dye uptake in normal tissue: to a much lesser extent by normal tissue
[6]; freshly harvested specimens
  dye uptake by fat cells and tissues: can also be taken up by fatty tissues; also recorded: also taken up by fat cells and tissues
  dye uptake in human bladder tumor tissue: can be taken up; also recorded: taken up by tumor tissues
[7]; ARCaPM cells (10 to 1,000) added to 1 ml whole blood
  fewest cancer cells detected in whole blood: 10 cancer cells per milliliter
[7]; ARCaPM cells, 20 μM IR-783, 30 minutes, 37° C.
  visualization / dye uptake of cancer cells mixed with human blood: clearly visualized; also recorded: Significant uptake and retention
[7]; human blood, 20 μM IR-783
  signal in mononuclear cells: hardly showed any signals
[8]
  flow cytometry discrimination of stained cancer cells: totally identified from normal lymphocytes
  visualization of cancer cells in blood under NIR imaging: clearly visualized
